Test system: E-selectin expression on HUVEC
Assay: Induction of E-selectin expression on HUVEC by TNFα (flow cytometry, anti-E-selectin antibody)
Assay type: cell-based, human
Conditions: with TNFα stimulation
Procedure: Subsequent studies were performed to investigate the ability of liposomes containing Compound 3 to recognize and bind to cells under conditions where E-selectin is expressed. For these liposomes with and without Compound 3 were prepared with a fluorescent phospholipid membrane marker (Composition 4 and Composition 3, respectively) allowing for detection by flow cytometry. Liposomes were incubated for 60 min at 37° C. with cultures of human umbilical vein endothelial cells (HUVEC) pretreated in media deficient in TNFα or supplemented with TNFα to induce E-selectin expression. Association of fluorescein labeled liposomes with cell preparations by flow cytometry was then determined.
The flow cytometry-based assay used liposomes containing 0% or 5% Compound 3 (L4 and L5, respectively). Initial studies defined that only TNFα-stimulated HUVEC but not unstimulated HUVEC express E-selectin.

TNFα
HUVEC express E-selectin: 88.696%

Source: patent publication US20230364277A1, “E-SELECTIN TARGETING AGENTS” (GLYCOMIMETICS, INC., priority 2020, published 2023)
